Key:
human plasma [1] = experiment: Anticoagulant effect in human plasma, thrombin time (TT); format: biochemical
Text: (§1) Anticoagulant data may be represented as follows:

rats = experiment: FeCl₃-induced thrombosis model in rats; format: in vivo; conditions: intravenously 10 mg/kg of body weight injection, followed by continuous 1 mg/kg/minute infusion, 4 rats
Text: In vivo anti-thrombotic effects in rats may also be utilized for evaluation. […] Of course, actual dosage and frequency will vary dependent upon the nature and severity of the condition, age, general health conditions and such other factors well known and appreciated by the skilled attending diagnostician.

HUMAN LUNG TRYPTASE = experiment: Inhibition of tryptase, progress curve analysis; format: biochemical; conditions: non-linear regression (ENZFITTER)
Text: Using standard in vitro methodology for determining inhibitory activity of tryptase (Journal of Biological Chemistry, Vol. 261, June 5, pp. 7372-7379, 1986), the following results have been obtained.

human plasma [2] = experiment: Anticoagulant effect in human plasma, activated partial thromboplastin time (aPTT); format: biochemical
Text: as §1

| kon (HUMAN LUNG TRYPTASE) [M⁻¹ s⁻¹] | Structure (SMILES) | ID₂ TT (amount required for doubling the clotting time) (human plasma [1]) [µM] | occlusion (rats) | ID₂ aPTT (amount required for doubling the clotting time) (human plasma [2]) [µM] |
| --- | --- | --- | --- | --- |
| 1200 ± 40 | N=C(N)NCCCC(NC(=O)[C@@H]1CCCN1C(=O)[C@H](N)Cc1ccccc1)C(=O)C(F)(F)C(F)(F)F (stereo partly drawn) [D-Phe-Pro-Arg-CF₂CF₃, D-phenylalanyl-N-[4-(aminoiminomethyl)amino]-1-(pentafluoropropionylbutyl]-L-prolineamide, 1.5 HF, O.5 CH₃CO₂H, 3H₂O] | 1 | preventing occlusion in two rats and prolonging occlusion in the other 2 of the 4 rats | 2 |
| 370 ± 40 | N=C(N)NCCCC(NC(=O)[C@@H]1CCCN1C(=O)[C@H](N)Cc1ccccc1)C(=O)C(F)(F)F (stereo partly drawn) [D-Phe-Pro-Arg-CF₃] | 43 | – | 148 |
| 200 ± 10 | CN[C@H](Cc1ccccc1)C(=O)N1CCC[C@H]1C(=O)NC(CCCNC(=N)N)C(=O)C(F)(F)F (stereo partly drawn) [D-CH₃Phe-Pro-Arg-CF₃, N-Methyl-D-phenylalanyl-N[4-(aminoiminomethyl)amino-1-(trifluoroacetyl)butyl]-L-proline amide] | 108 | – | 218 |

— patent EP0503203A1, “Novel thrombin inhibitors” (MERRELL DOW PHARMACEUTICALS INC., priority 1991, dated 1992)
